As usually defined, the IC50 is the concentration at which inhibition is half-maximal.

The source made the active and inactive calls. The rule behind the calls is not given here. Bounds are passed on as bounds.

From PubChem BioAssay AID504419 (The Scripps Research Institute Molecular Screening Center, 2011) come the findings set out here.

The target in experiment [1] is NS3h 1b (con1). Put plainly: strain-dependent HCV NS3h unwinding inhibition – biochemical, real-time fluorescence, genotypes 2a and 1b, Set 2, selectivity assay for HCV NS3 helicase inhibitor project, late-stage follow-up (AID 504419). The note with it: Recombinant NS3 helicase.
Experiment [2] deals with NS3h 2a (JFH1). The description is as above. The note with it: Recombinant NS3 helicase.

As to `Cc1ccc(C(=O)C2=C(O)C(=O)N(Cc3ccccc3)C2c2cc(Cl)cc(Cl)c2)o1` (stereo unspecified), the IC50 in experiment [1] and in experiment [2] was > 100 µM (inactive) in each case.

Turning to `Cc1ccc(C(=O)Nc2ccc(-c3nc4ccc(-c5nc6ccc(C)c(S(=O)(=O)O)c6s5)cc4s3)cc2)cc1`, the IC50 in experiment [1] is 3.69 µM; in experiment [2], 3.35 µM.

`CCOc1ccc(N2C(=O)C3Sc4[nH]c(=O)sc4C(/C=C/c4ccccc4)C3C2=O)cc1` (stereo unspecified): the IC50 in experiment [1] and in experiment [2] was > 100 µM (inactive) in each case.

On to `O=C(c1ccc2nc(-c3ccco3)c(-c3ccco3)nc2c1)N1CCN(c2ccccc2)CC1`, for which the IC50 in experiment [1] and in experiment [2] was > 100 µM (inactive) in each case.

As for `Cc1ccc2nc(-c3ccc4nc(-c5ccc(N)cc5)sc4c3)sc2c1S(=O)(=O)O`, the IC50 entry in experiment [1] and in experiment [2] was “inactive” each time.

With `Cc1ccc2nc(-c3ccc4nc(-c5ccc(NC(=O)c6ccc7nc(-c8ccc(N)cc8)sc7c6)cc5)sc4c3)sc2c1S(=O)(=O)O`, the concentration for half-maximal inhibition (IC50) was 7.57 µM in experiment [1] and 2.52 µM in experiment [2].

As to `CCN(CC)S(=O)(=O)c1cccc(C(=O)N/N=C/c2ccc(O)c(O)c2O)c1`, the IC50 in experiment [1] and in experiment [2] was > 100 µM (inactive) in each case.

On to `COc1ccc([C@H]2C[C@@H](c3ccccc3)Oc3cc(OC)c(OC)c(OC)c32)cc1`, for which the IC50 in experiment [1] and in experiment [2] was > 100 µM (inactive) in each case.

Regarding `Cc1ccc2nc(-c3ccc4nc(NC(=O)c5ccc6ncoc6c5)sc4c3)sc2c1`, the IC50 entry in experiment [1] and in experiment [2] was “inactive” throughout.

For the compound `COC(=O)c1ccc(C(=O)Nc2ccc(-c3nc4ccc(-c5nc6ccc(C)c(S(=O)(=O)O)c6s5)cc4s3)cc2)cc1`, the IC50 in experiment [1] is 6.85 µM; in experiment [2], 4.98 µM.

As to `O=c1c2c(-c3ccco3)csc2nc(SCc2cn3ncccc3n2)n1-c1ccccc1`, the IC50 in experiment [1] and in experiment [2] was > 100 µM (inactive) throughout.

Turning to `Cc1ccc2nc(-c3ccc4nc(-c5ccc(NC(=O)c6ccc(C(F)(F)F)cc6)cc5)sc4c3)sc2c1S(=O)(=O)O`, the values for the IC50 in experiment [1] and in experiment [2] were 1.76 µM and 2.51 µM, respectively.

With `Cc1ccc2nc(-c3ccc4nc(-c5ccc(NC(=O)c6ccccc6)cc5)sc4c3)sc2c1S(=O)(=O)O`, in experiment [1], the IC50 entry is “inactive”. Also, the half-maximal inhibitory concentration (IC50) in experiment [2] was 4.07 µM.

As for `COc1cc2oc(=O)cc(-c3ccc(-c4ccc(NC(C)=O)cc4)cc3)c2c(OC)c1OC`, the IC50 in experiment [1] and in experiment [2] was > 100 µM (inactive) each time.

As for `Cc1ccc2nc(-c3ccc4nc(-c5ccc(NC(=O)c6ccc(NC(=O)OCC7c8ccccc8-c8ccccc87)cc6)cc5)sc4c3)sc2c1S(=O)(=O)O`, the values for the IC50 in experiment [1] and in experiment [2] were 6.56 µM and 6.04 µM, respectively.

`COc1cc(OC)c2c(-c3ccccc3)cc(=O)oc2c1[C@H](CCN1CCN(c2ccccc2)CC1)c1ccc(N(C)C)cc1`: the IC50 in experiment [1] is > 33.2 µM (inactive); in experiment [2] it was > 80.3 µM (inactive).

Consider `CC1CCCCC1NC(=O)COC(=O)c1c2c(nc3ccccc13)/C(=C/c1ccco1)CC2` (stereo unspecified), for which, in experiment [1], the IC50 entry is “inactive”. Moreover, in experiment [2], the IC50 is > 100 µM (inactive).

In the case of `Cc1ccc2nc(-c3ccc4nc(-c5ccc(NC(=O)c6ccc(N)cc6)cc5)sc4c3)sc2c1S(=O)(=O)O`, the IC50 in experiment [1] was 7.85 µM; in experiment [2] it was 4.39 µM.

`Nc1c(C(=O)Nc2ccccc2F)sc2nc(-c3ccco3)ccc12`: the IC50 in experiment [1] and in experiment [2] was > 100 µM (inactive) throughout.

Turning to `Cc1ccc2nc(-c3ccc4nc(-c5ccc(NC(=O)c6ccc(F)cc6)cc5)sc4c3)sc2c1S(=O)(=O)O`, the half-inhibitory concentration (IC50) was 5.38 µM in experiment [1] and 2.75 µM in experiment [2].

`CCCCCOc1ccc(C2C(C(=O)c3ccc(C)o3)=C(OC)C(=O)N2c2cc(C)on2)cc1` (stereo unspecified): the IC50 in experiment [1] and in experiment [2] was > 100 µM (inactive) each time.

Consider `CCOc1ccc(C2C(C(=O)c3ccc(C)o3)=C(O)C(=O)N2Cc2ccco2)cc1` (stereo unspecified), for which the IC50 in experiment [1] and in experiment [2] was > 100 µM (inactive) in each case.

On to `Cc1ccc2nc(-c3ccc(NC(=S)Nc4ccccc4Br)cc3)sc2c1`, for which the results for the IC50 in experiment [1] and in experiment [2] were > 24 µM (inactive) and > 100 µM (inactive), respectively.

As for `CN(C)S(=O)(=O)c1cccc(NC(=S)N/N=C/c2cc(Br)ccc2O)c1`, the IC50 in experiment [1] and in experiment [2] was > 100 µM (inactive) each time.

As for `COc1cc(Br)cc(C2C(C(=O)c3ccc(C)o3)=C(O)C(=O)N2Cc2ccco2)c1OC` (stereo unspecified), the IC50 in experiment [1] and in experiment [2] was > 100 µM (inactive) in each case.

Turning to `COc1ccc(N=Nc2ccc(O)c3ncccc23)c(S(=O)(=O)N(C)C)c1`, the IC50 in experiment [1] and in experiment [2] was > 100 µM (inactive) in each case.

For `C/C(=N\NC(N)=S)c1cc(-c2ccccc2)c(-c2ccccc2)s1`, the IC50 in experiment [1] and in experiment [2] was > 100 µM (inactive) each time.

On to `Cc1cc(N2C(=O)C(O)=C(C(=O)c3ccc(C)o3)C2c2cccc(Cl)c2)no1` (stereo unspecified), for which the IC50 in experiment [1] and in experiment [2] was > 100 µM (inactive) throughout.
